According to the NIST ThermoML archive (doi:10.1016/j.fluid.2014.09.014):

Test: refractive index (other wavelength) (dimensionless); xn = mol fraction of the nth substance listed
Details: 298.15 K, 101 kPa, Liquid, Standard Abbe refractometry

CC(C)OC(C)C [diisopropyl ether] + CC(C)O
refractive index
Details | Wavelength=435.8 nm | Wavelength=486.1 nm | Wavelength=546.1 nm | Wavelength=587.6 nm
x1 = 0.0277 | – | 1.37932 | 1.37648 | 1.37498
x1 = 0.0507 | – | 1.37925 | 1.37639 | 1.37488
x1 = 0.051 | – | 1.37929 | 1.37644 | 1.37491
x1 = 0.0717 | 1.38247 | 1.37903 | 1.37618 | 1.37468
x1 = 0.1528 | 1.38186 | 1.37841 | 1.37557 | 1.37406
x1 = 0.1553 | 1.38186 | 1.37841 | 1.37557 | 1.37406
x1 = 0.1938 | 1.38158 | 1.37814 | 1.3753 | 1.37379
x1 = 0.2029 | 1.38132 | 1.37787 | 1.37502 | 1.37351
x1 = 0.245 | 1.38088 | 1.37746 | 1.37462 | 1.37311
x1 = 0.297 | 1.38044 | 1.377 | 1.37426 | 1.37265
x1 = 0.2973 | 1.38067 | 1.37725 | 1.37439 | 1.37289
x1 = 0.3068 | 1.38023 | 1.37678 | 1.37394 | 1.37243
x1 = 0.398 | 1.37907 | 1.37562 | 1.37278 | 1.37127
x1 = 0.4609 | 1.37845 | 1.37502 | 1.37217 | 1.37067
x1 = 0.5434 | 1.37764 | 1.3742 | 1.37135 | –
x1 = 0.6032 | 1.37707 | 1.37364 | 1.3708 | –
x1 = 0.6371 | 1.37669 | 1.37328 | 1.37042 | –
x1 = 0.701 | 1.37604 | 1.37261 | 1.36978 | –
x1 = 0.754 | 1.37567 | 1.37225 | 1.3694 | –
x1 = 0.791 | 1.37529 | 1.37188 | 1.36903 | –
x1 = 0.8296 | 1.37498 | 1.37154 | 1.36872 | –
x1 = 0.8864 | 1.37471 | 1.37132 | 1.36847 | –
x1 = 0.8903 | 1.37434 | 1.3709 | 1.36807 | –
x1 = 0.9113 | 1.37411 | 1.37068 | 1.36785 | –
x1 = 0.9547 | 1.37367 | 1.37025 | 1.36742 | –
x1 = 0.973 | 1.37334 | 1.36994 | 1.3671 | –
x1 = 0.9771 | 1.3733 | 1.36986 | 1.36704 | –
x1 = 1 | 1.37308 | 1.36965 | 1.36683 | –
